Measured values taken from patent publication US8133849B2, “Herbicidal compounds” (Syngenta Limited, priority 2007, dated 2012).

Tests used:
Experiment in all cases: Example B2 herbicidal action, post-emergence, pots in glasshouse, damage score 0-10
Type in all cases: in vivo
Conditions in all cases: application post-emergence, rate 1000 g/ha, evaluated after 13 days
Ipomea hederaceae = tested on: Ipomea hederaceae
Outline: (§1)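 Damage was assessed 13 days after a post-emergence spray given to 8-day-old pot seedlings. The spray was an aqueous solution from an acetone/water (50:50) formulation with 0.5% Tween 20. Plants grew in a glasshouse at 24/16° C, 14 h light, 65% humidity, watered twice daily.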

Amaranthus retroflexus = tested on: Amaranthus retroflexus
Outline: as §1

Setaria faberi = tested on: Setaria faberi
Outline: as §1

Echinochloa crus-galli = tested on: Echinochloa crus-galli
Outline: as §1

Solanum nigrum = tested on: Solanum nigrum
Outline: as §1

| Compound | IPOHE damage score (10=total damage to plant; 0=no damage to plant) (Ipomea hederaceae) | AMARE damage score (10=total damage to plant; 0=no damage to plant) (Amaranthus retroflexus) | SETFA damage score (10=total damage to plant; 0=no damage to plant) (Setaria faberi) | ECHCG damage score (10=total damage to plant; 0=no damage to plant) (Echinochloa crus-galli) | SOLNI damage score (10=total damage to plant; 0=no damage to plant) (Solanum nigrum) |
| --- | --- | --- | --- | --- | --- |
| Cc1ccc(C(F)(F)F)c(C2=C(O)c3nccnc3N(CC(F)F)S2(=O)=O)c1 [Compound D41] | 9 | 9 | 2 | 1 | 10 |
| COc1cccc(F)c1C1=C(OC(=O)C(C)C)c2nccnc2N(CC(F)F)S1(=O)=O [Compound C137] | 8 | 7 | 8 | 3 | 9 |
| CC(C)C(=O)OC1=C(c2c(Br)cccc2Br)S(=O)(=O)N(CC(F)F)c2nccnc21 [Compound C49] | 9 | 9 | 6 | 8 | 9 |
| CC(C)C(=O)OC1=C(c2ccccc2Br)S(=O)(=O)N(CC(F)F)c2nccnc21 [Compound C39] | 9 | 9 | 4 | 4 | 10 |
| CCN1c2nccnc2C(O)=C(c2cc(F)c(Cl)cc2Cl)S1(=O)=O [Compound D23] | 9 | 8 | 2 | 2 | 8 |
| C#CCN1c2nccnc2C(OC(=O)C(C)C)=C(c2c(Cl)ccc(Cl)c2C(F)(F)F)S1(=O)=O [Compound C84] | 8 | 9 | 7 | 7 | 10 |
| O=S1(=O)C(c2cc(C(F)(F)F)ccc2Cl)=C(O)c2c(ncc[n+]2[O-])N1CC(F)F [Compound E1, 3-(2-chloro-5-trifluoromethyl-phenyl)-1-(2,2-difluoro-ethyl)-2,2-dioxo-5-oxy-1,2-dihydro-2-λ-6-thia-1,5,8-triaza-naphthalen-4-ol] | 7 | 4 | 1 | 3 | 9 |
| CCN1c2nccnc2C(OC(=O)C(C)(C)C)=C(c2c(Cl)ccc(Cl)c2Cl)S1(=O)=O [Compound C72] | 10 | 9 | 1 | 6 | 10 |
| O=S1(=O)C(c2c(Cl)ccc(Cl)c2C(F)(F)F)=C(O)c2nccnc2N1CC(F)F [Compound D27] | 7 | 9 | 8 | 7 | 8 |
| CCSC(=O)OC1=C(c2cc(Cl)ccc2C(F)(F)F)S(=O)(=O)N(CC)c2nccnc21 [Compound C109] | 9 | 5 | 2 | 5 | 8 |
| CC#CCN1c2nccnc2C(O)=C(c2c(Cl)ccc(Cl)c2C(F)(F)F)S1(=O)=O [Compound D48] | 7 | 3 | 0 | 0 | 8 |
| O=S1(=O)C(c2c(F)ccc(Br)c2Cl)=C(O)c2nccnc2N1CC(F)F [Compound D14] | 9 | 9 | 5 | 7 | 9 |
| CC(C)C(=O)OC1=C(c2cc(I)ccc2Cl)S(=O)(=O)N(CC(F)F)c2nccnc21 [Compound C54] | 8 | 6 | 2 | 3 | 8 |
